Test results: patent US11667638B2, “4-substitued cytisine analogues” (The University of Bristol, priority 2016, dated 2023)

Molecular target: α4β2 nAChR (Homo sapiens (Human), UniProt P17787+P43681)
Assay type: binding
Conditions: ratio of Ki values
Description: HEK 293 cells were grown in Dulbecco's modified Eagle medium supplemented with 10% fetal bovine serum, 1% L-Glutamine, 100 units/ml penicillin G, and 100 μg/streptomycin in a humidified atmosphere containing 10% CO2. The cDNAs encoding α3 and β4 or α4 and β2 (were transfected into the HEK 293 cells at 30% confluency). The cell transfections were carried out in 100 mm Petri dishes using 30 μL of JetPEI™ (Polypus, France) (1 mg/ml, pH 7.2) and 3 μg of each cDNA. After 24 h transfection, the cells were collected, washed with PBS by centrifugation, and used for binding analysis.
[^3H]-epibatidine saturation binding experiments to HEK transfected α3β4 or α4β2 receptors were performed by means of overnight incubation at 4° C. at concentrations ranging from 0.005 to 1 nM in a buffer containing 50 mM Tris-HCl, pH 7, 150 mM NaCl, 5 mM KCl, 1 mM MgCl2, 2.5 mM CaCl2 and 2 mg/ml BSA, in the presence (aspecific binding) or absence (total binding) of 100 nM cold epibatidine. Specific ligand binding was defined as total binding minus the binding in the presence of 100 nM cold epibatidine.
After incubation, the membranes of HEK cells transfected with α4β2* or α3β4 subtypes were washed by filtration on GFC filters with ice-cold PBS. The GFC filters were pre-soaked in polyethylenimine and filtered through an harvester apparatus. [^3H]-epibatidine binding was determined by means of liquid scintillation counting in a beta counter.
The ligand binding data were analyzed by means of nonlinear regression using Prism version 5 (GraphPad Software, Inc., La Jolla, Calif.). The Ki values were calculated from the experimental IC50 values using the Cheng-Prusoff equation for a single population of competitive sites: Ki=IC50/[1+(L/Kd)], where L is the concentration of radioligand used in each experiment and the Kd values were determined by saturation binding experiment. All of the assays were performed in duplicate and repeated at least two-three times.

α4β2 nAChR, sequence (P43681 29-627 limits assumed): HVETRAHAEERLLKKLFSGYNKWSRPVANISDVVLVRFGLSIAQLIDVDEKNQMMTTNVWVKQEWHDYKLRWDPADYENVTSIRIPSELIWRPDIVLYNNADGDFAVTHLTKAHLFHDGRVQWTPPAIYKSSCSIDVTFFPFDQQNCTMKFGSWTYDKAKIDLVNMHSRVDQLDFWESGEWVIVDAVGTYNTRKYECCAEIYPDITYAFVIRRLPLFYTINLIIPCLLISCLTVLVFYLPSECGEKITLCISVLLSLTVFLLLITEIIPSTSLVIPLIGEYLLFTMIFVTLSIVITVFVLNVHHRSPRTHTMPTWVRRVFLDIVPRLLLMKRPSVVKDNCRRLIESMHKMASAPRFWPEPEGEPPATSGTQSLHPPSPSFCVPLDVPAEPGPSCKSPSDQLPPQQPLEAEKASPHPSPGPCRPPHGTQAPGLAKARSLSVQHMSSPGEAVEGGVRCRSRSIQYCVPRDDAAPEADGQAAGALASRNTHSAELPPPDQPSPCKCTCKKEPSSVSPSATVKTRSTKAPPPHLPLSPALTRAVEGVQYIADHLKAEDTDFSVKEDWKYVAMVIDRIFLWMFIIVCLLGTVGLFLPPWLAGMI
α4β2 nAChR, sequence (P17787 26-502 limits assumed): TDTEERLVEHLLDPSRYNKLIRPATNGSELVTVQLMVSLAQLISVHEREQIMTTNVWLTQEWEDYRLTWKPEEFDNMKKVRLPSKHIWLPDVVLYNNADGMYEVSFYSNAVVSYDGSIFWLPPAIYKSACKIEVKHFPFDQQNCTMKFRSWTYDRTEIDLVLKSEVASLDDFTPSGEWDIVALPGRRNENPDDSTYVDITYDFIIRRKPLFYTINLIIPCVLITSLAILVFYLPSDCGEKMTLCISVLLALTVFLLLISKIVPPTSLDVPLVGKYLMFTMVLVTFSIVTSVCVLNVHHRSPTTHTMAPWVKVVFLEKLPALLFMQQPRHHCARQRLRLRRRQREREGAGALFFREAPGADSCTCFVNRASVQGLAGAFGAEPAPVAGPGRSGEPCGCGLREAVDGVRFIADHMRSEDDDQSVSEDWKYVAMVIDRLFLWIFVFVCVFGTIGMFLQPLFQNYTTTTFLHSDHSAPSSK

Molecule	Ratio α3β4/α4β2
O=C(O)[C@@H]1CCCN1c1cc2n(c(=O)c1)CC1CNC[C@@H]2C1 (single isomer, unassigned; (-)) [Compound 138, (−)4-(N-(L-proline)cytisine]	2.7
O=c1cc(NCc2ccccc2)cc2n1CC1CNC[C@@H]2C1 [Compound 78]	125.0
O=C(O)c1cc2n(c(=O)c1)CC1CNC[C@@H]2C1 (single isomer, unassigned; (-)) [Compound 120, (−)4-Carboxylic acidcytisine]	57.7
CN(C)Cc1cc2n(c(=O)c1)CC1CNC[C@@H]2C1 [Compound 151, 4-(dimethylamino)methyl-(−)-cytisine]	105.7
NCC(=O)Nc1cc2n(c(=O)c1)CC1CNC[C@@H]2C1 [Compound 98]	1670.0
O=c1cc(-c2nnn[nH]2)cc2n1CC1CNC[C@@H]2C1 (single isomer, unassigned; (-)) [Compound 149, (−)4-tetrazoylcytisine]	149.2
CN(C)c1cc2n(c(=O)c1)CC1CNC[C@@H]2C1 (single isomer, unassigned; (+)) [Compound 86, (+)4-(N,N′-dimethylamino)cytisine]	5.8
Cl.O=c1cc(C#Cc2ccccc2)cc2n1CC1CNC[C@@H]2C1 (single isomer, unassigned; (+)) [Compound 129, (+)4-(phenylacetylene)cytisine]	32.2
(+)4-(E-2-propenoate methyl ester)cytisine [Compound 112]	152.8
Cl.O=c1ccccn1-c1cc2n(c(=O)c1)CC1CNC[C@@H]2C1 (single isomer, unassigned; (-)) [Compound 108, (−)4-(N-2-pyridone)cytisine]	90.3
Cl.O=c1cc(CCc2ccccc2)cc2n1CC1CNC[C@@H]2C1 [?]	21.7
NCc1cc2n(c(=O)c1)CC1CNC[C@@H]2C1 (single isomer, unassigned; (-)) [Compound 144, (−)4-(aminomethyl)cytisine]	78.0
(−)4-(3-Pyridinyl)cytisine [Compound 104]	168.7
O=C(Nc1cc2n(c(=O)c1)CC1CNC[C@@H]2C1)c1ccccc1 (single isomer, unassigned; (+)) [Compound 96, (+)4-(N-Benzoylamino)cytisine]	89.6
C=Cc1cc2n(c(=O)c1)CC1CNC[C@@H]2C1 (single isomer, unassigned; (+)) [Compound 116, (+)4-Vinylcytisine]	100.1
O=c1cc(N2CCOCC2)cc2n1CC1CNC[C@@H]2C1 (single isomer, unassigned; (+)) [Compound 92, (+)4-N-morpholinecytisine]	70.6
Cl.O=c1cc(CC(F)(F)F)cc2n1CC1CNC[C@@H]2C1 (single isomer, unassigned; (-)) [Compound 79, (−)4-(2,2,2-Trifluoroethyl)cytisine]	27.4
Cl.O=c1cc(C(F)(F)F)cc2n1CC1CNC[C@@H]2C1 (single isomer, unassigned; (-)) [Compound 77, (−)4-Trifluoromethylcytisine]	12.9
Cl.O=c1cc(/C=C/c2ccccc2)cc2n1CC1CNC[C@@H]2C1 (single isomer, unassigned; (+)) [Compound 114, (+)4-(E-(2-phenylethenyl))cytisine]	145.5
O=c1cc(N2CCNCC2)cc2n1CC1CNC[C@@H]2C1 (single isomer, unassigned; (+)) [Compound 90, (+)4-(N-piperazinyl)cytisine]	14.1
Cl.O=c1c(Br)c(I)cc2n1CC1CNC[C@@H]2C1 (single isomer, unassigned; (+)) [Compound 160, (+)3-Bromo-4-iodocytisine]	50.0
